Patent publication US12653894B2, “Degradation of FAK or FAK and ALK by conjugation of FAK and ALK inhibitors with E3 ligase ligands and methods of use” (DANA-FARBER CANCER INSTITUTE, INC., priority 2018, dated 2026)
Where two headings read alike, the source gives them in different places.

Key:
FAK [1] = target: T1, FAK (Homo sapiens, UniProt Q05397); assay: FAK degradation by immunoblot in PA-TU-8988T cells; format: cell-based; design: endogenous in cells; host or cells: PA-TU-8988T; conditions: for Concentration at which degradation of FAK protein is evident / Concentration of maximal degradation of FAK protein / Concentration giving modest degradation of FAK protein / Degradation of FAK protein (in words): immunoblot; for inhibition at 0.01 µM / inhibition at 0.1 µM: PaTu 8988t; for inhibition at 0.01 µM: read-out: Degradation at 10 nM; for inhibition at 0.1 µM: read-out: Degradation at 100 nM; for Degradation of FAK protein (in words): 0.1 nM to 1000 nM
T1 sequence (Q05397 whole entry): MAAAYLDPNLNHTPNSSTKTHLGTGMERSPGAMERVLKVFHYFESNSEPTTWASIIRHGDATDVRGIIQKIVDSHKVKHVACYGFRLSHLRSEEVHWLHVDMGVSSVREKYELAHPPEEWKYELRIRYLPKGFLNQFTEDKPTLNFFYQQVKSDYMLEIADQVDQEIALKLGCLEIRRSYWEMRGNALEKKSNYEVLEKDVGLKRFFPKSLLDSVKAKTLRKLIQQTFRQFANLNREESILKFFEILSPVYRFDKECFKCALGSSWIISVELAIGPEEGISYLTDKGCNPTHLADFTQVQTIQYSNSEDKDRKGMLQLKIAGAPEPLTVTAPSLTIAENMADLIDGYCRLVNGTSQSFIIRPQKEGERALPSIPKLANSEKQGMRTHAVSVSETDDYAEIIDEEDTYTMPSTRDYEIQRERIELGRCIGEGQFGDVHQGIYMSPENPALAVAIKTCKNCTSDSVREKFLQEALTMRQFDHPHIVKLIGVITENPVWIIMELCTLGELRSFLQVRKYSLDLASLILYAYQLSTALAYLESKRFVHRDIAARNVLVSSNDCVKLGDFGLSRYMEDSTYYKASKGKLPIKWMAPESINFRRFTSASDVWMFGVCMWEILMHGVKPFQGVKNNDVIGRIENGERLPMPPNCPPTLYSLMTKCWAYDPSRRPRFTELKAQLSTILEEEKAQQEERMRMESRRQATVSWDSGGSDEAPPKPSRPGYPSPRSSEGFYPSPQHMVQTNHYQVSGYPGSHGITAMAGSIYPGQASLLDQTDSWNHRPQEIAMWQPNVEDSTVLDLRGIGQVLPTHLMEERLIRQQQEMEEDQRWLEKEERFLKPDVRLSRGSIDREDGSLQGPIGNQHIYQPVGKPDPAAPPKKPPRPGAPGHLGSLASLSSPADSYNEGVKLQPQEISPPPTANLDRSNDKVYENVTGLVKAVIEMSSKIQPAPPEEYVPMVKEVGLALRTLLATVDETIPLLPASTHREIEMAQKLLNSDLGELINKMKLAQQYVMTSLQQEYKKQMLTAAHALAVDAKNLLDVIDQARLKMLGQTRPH
Experimental: (§1) Immunoblotting for FAK was performed to evaluate changes in protein levels upon FAK degrader treatment. All samples were run with equal total protein content and immunoblotting was performed using antibodies that detect total FAK protein as well as GAPDH or α-Tubulin as a loading control. Fluorescently labelled infrared secondary antibodies that enable detection using an Odyssey® CLx Imager was employed to evaluate protein levels.
FAK degraders were evaluated in immunoblot assays to determine the effective dose required to achieve FAK protein loss. Immunoblots for FAK protein were normalized relative to the loading control and percent degradation was evaluated compared to DMSO treatment.

FAK [2] = target: T1, FAK; assay: FAK degradation by immunoblot in H3122 cells; format: cell-based; design: endogenous in cells; host or cells: H3122; conditions: 10 nM to 1000 nM, 16 hours (compound 10) or 24 hours (compounds 1, 9)
ALK [3] = target: T2, ALK (Homo sapiens, UniProt Q9UM73); assay: ALK degradation by immunoblot in H3122 cells; format: cell-based; design: endogenous in cells; host or cells: H3122; the other entry of the earlier key: EML4 (Q9HC35, Echinoderm microtubule-associated protein-like 4); conditions: 10 nM to 1000 nM, 16 hours (compound 10) or 24 hours (compounds 1, 9)
Target sequence in this assay (Q9UM73 with tags, fused parts or gaps): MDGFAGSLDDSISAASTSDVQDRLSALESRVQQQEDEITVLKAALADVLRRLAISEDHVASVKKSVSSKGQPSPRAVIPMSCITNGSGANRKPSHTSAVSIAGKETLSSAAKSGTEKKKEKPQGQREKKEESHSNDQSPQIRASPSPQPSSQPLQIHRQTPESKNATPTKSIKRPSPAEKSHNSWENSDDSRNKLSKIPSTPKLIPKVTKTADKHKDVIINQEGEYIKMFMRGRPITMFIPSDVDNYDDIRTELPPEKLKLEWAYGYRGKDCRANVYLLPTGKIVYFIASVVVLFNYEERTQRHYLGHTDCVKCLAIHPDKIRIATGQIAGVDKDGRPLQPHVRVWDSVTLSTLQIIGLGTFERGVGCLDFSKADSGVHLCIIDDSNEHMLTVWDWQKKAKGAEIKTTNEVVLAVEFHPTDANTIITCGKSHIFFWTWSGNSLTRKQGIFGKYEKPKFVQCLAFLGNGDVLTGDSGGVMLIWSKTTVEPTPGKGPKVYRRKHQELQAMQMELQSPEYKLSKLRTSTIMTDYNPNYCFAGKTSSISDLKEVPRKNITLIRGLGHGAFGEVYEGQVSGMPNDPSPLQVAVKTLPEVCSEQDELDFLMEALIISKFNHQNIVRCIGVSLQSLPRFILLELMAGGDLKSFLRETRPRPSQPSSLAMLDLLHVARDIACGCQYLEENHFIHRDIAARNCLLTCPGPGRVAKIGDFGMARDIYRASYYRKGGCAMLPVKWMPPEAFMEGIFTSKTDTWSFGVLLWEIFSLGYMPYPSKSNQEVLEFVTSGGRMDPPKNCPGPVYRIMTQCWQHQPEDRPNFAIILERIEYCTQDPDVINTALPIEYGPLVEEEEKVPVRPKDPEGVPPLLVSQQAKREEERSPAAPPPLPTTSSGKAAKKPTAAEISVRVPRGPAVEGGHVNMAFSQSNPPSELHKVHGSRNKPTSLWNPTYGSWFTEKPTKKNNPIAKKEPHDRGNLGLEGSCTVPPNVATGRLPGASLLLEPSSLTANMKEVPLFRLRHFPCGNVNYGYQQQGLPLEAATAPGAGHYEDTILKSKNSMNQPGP
Target sequence in this assay (Q96SW2 whole entry partner): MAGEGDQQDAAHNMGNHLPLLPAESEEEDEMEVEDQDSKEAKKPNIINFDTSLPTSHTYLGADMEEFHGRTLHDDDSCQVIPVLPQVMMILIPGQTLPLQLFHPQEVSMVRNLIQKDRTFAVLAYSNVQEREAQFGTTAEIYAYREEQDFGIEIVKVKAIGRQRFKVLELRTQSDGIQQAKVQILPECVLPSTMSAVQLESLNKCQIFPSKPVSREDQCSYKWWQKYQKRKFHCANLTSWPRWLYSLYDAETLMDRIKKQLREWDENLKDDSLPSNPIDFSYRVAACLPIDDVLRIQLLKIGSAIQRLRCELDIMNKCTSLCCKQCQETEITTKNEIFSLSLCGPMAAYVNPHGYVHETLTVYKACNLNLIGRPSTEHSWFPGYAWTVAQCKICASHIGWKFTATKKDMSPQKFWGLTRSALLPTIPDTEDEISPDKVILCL

FAK [4] = target: T1, FAK; assay: Rescue of compound 9-induced FAK degradation in PA-TU-8988T cells after pre-treatment; format: cell-based; design: endogenous in cells; host or cells: PA-TU-8988T; conditions: pre-treatment 2 hours (0.5 μM carfilzomib, 1.0 μM MLN4924, 10 μM lenalidomide, 10 μM compound 13), then 10 nM compound 9 for 4 hours
Experimental: as §1, with “PA-TU-8988T cells were treated with FAK degraders or indicated inhibitors for four hours at the indicated doses. After four hours, PA-TU-8988T cells were lysed in radioimmunoprecipitation assay (RIPA) buffer (Thermo Scientific™) on ice for 60 minutes and lysates were clarified by centrifugation. Immunoblotting” for “Immunoblotting”

FAK [5] = target: T1, FAK; assay: In vitro kinase assay (Life Technologies), FAK; conditions: ATP concentration = Km, duplicate; read-out: Biochemical IC50 FAK
Experimental: (§2) In vitro kinase assays with inventive compound 13 and VS-4718 were performed by Life Technologies™ in duplicate at an ATP concentration=Km for each indicated kinase. The results are summarized in Table 2 and indicate that inventive compound 13 maintained potent FAK activity, with improved activity on ALK as compared to VS-4718.

ALK [6] = target: T2, ALK; assay: In vitro kinase assay (Life Technologies), ALK; design: purchased Life Technologies; conditions: ATP concentration = Km, duplicate; read-out: Biochemical IC50 ALK
Experimental: as §2
Target sequence in this assay (Q9UM73 19-1620): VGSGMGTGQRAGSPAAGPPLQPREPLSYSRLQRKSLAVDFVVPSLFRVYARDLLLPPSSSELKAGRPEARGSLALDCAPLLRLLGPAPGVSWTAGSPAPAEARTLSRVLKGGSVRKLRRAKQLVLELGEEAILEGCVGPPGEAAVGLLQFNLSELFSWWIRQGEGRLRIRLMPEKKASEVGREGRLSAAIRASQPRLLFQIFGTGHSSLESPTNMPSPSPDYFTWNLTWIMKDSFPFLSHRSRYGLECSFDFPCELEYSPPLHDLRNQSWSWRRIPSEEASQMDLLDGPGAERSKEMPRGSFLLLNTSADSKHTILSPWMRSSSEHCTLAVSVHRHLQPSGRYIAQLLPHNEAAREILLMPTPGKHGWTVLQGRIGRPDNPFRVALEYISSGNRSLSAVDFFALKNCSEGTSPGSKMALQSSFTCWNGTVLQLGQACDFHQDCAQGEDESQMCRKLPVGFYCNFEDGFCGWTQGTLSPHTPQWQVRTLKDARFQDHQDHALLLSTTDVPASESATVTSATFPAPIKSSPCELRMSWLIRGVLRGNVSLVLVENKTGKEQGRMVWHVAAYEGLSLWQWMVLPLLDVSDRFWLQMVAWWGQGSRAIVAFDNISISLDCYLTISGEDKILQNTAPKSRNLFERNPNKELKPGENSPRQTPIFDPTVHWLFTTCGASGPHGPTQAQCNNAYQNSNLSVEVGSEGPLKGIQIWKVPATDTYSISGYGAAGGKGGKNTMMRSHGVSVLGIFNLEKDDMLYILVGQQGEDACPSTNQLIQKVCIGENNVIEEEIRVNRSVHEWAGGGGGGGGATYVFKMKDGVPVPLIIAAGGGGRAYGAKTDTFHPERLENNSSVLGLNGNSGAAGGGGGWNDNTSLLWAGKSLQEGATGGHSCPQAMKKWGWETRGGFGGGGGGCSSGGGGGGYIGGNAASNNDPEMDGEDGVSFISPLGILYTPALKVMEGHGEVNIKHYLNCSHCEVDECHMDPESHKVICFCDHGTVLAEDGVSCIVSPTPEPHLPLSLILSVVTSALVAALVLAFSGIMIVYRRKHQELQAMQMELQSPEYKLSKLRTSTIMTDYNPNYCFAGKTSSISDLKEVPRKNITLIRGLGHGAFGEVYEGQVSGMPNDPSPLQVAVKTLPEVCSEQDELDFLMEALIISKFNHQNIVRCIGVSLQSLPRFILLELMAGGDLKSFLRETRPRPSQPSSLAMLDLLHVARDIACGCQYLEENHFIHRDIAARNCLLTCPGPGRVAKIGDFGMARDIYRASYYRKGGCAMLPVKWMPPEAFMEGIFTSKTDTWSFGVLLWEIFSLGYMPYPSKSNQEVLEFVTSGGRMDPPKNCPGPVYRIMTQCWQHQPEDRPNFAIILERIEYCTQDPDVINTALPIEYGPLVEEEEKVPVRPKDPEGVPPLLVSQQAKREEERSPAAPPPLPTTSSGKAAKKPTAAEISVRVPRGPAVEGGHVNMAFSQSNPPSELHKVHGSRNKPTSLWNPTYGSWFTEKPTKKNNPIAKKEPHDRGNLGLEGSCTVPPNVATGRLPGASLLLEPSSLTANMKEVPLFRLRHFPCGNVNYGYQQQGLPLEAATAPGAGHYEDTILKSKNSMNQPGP

[7] = total FAK protein, PA-TU-8988T cells, 10 nM, 4 hours, vs DMSO
[8] = total FAK protein, PA-TU-8988T cells, 100 nM, 4 hours, vs DMSO

Concentration at which degradation of FAK protein is evident (FAK [1]; PA-TU-8988T cells, 4 hours) | Concentration of maximal degradation of FAK protein (FAK [1]; PA-TU-8988T cells, 4 hours) | inhibition at 0.01 µM (FAK [1]; [7]) | inhibition at 0.1 µM (FAK [1]; [8]) | Molecule | also measured
10 nM | 100 nM | 70 to 84% | 85 to 100% | CNC(=O)c1ccccc1Nc1cc(Nc2ccc(N3CCN(CCOCCOCCNC(=O)CNc4cccc5c4C(=O)N(C4CCC(=O)NC4=O)C5=O)CC3)cc2OC)ncc1C(F)(F)F (stereo not drawn) [Compound 4, 2-((2-((4-(4-(2-(2-(2-(2-((2-(2,6-dioxopiperidin-3-yl)-1,3-dioxoisoindolin-4-yl)amino)acetamido)ethoxy)ethoxy)ethyl)piperazin-1-yl)-2-methoxyphenyl)amino)-5-(trifluoromethyl)pyridin-4-yl)amino)-N-methylbenzamide] | 
 |  | 0 to 24% | 0 to 24% | CNC(=O)c1ccccc1Nc1cc(Nc2ccc(N3CCN(CCCCCCNC(=O)COc4cccc5c4C(=O)N(C4CCC(=O)N(C)C4=O)C5=O)CC3)cc2OC)ncc1C(F)(F)F (stereo not drawn) [Compound 2, 2-((2-((2-methoxy-4-(4-(6-(2-((2-(1-methyl-2,6-dioxopiperidin-3-yl)-1,3-dioxoisoindolin-4-yl)oxy)acetamido)hexyl)piperazin-1-yl)phenyl)amino)-5-(trifluoromethyl)pyridin-4-yl)amino)-N-methylbenzamide] | Degradation of FAK protein (in words) (FAK [1]; PA-TU-8988T cells, 4 hours): did not induce degradation of FAK protein
 |  | 50 to 69% | 85 to 100% | CNC(=O)c1ccccc1Nc1cc(Nc2ccc(N3CCN(CCOCCOCCOCCNC(=O)COc4cccc5c4C(=O)N(C4CCC(=O)NC4=O)C5=O)CC3)cc2OC)ncc1C(F)(F)F (stereo not drawn) [Compound 3, 2-((2-((4-(4-(1-((2-(2,6-dioxopiperidin-3-yl)-1,3-dioxoisoindolin-4-yl)oxy)-2-oxo-6,9,12-trioxa-3-azatetradecan-14-yl)piperazin-1-yl)-2-methoxyphenyl)amino)-5-(trifluoromethyl)pyridin-4-yl)amino)-N-methylbenzamide] | Concentration giving modest degradation of FAK protein (FAK [1]; PA-TU-8988T cells, 4 hours): 100 nM
1 nM | 10 nM |  |  | CNC(=O)c1ccccc1Nc1cc(Nc2ccc(N3CCN(CCCCCCCCNC(=O)CNc4cccc5c4C(=O)N(C4CCC(=O)NC4=O)C5=O)CC3)cc2OC)ncc1C(F)(F)F (stereo not drawn) [Compound 5, 2-((2-((4-(4-(8-(2-((2-(2,6-dioxopiperidin-3-yl)-1,3-dioxoisoindolin-4-yl)amino)acetamido)octyl)piperazin-1-yl)-2-methoxyphenyl)amino)-5-(trifluoromethyl)pyridin-4-yl)amino)-N-methylbenzamide] | 
1 nM | 10 nM | 85 to 100% | 85 to 100% | CNC(=O)c1ccccc1Nc1cc(Nc2ccc(N3CCN(CCCCCCNC(=O)COc4cccc5c4C(=O)N(C4CCC(=O)NC4=O)C5=O)CC3)cc2OC)ncc1C(F)(F)F (stereo not drawn) [Compound 1, 2-((2-((4-(4-(6-(2-((2-(2,6-dioxopiperidin-3-yl)-1,3-dioxoisoindolin-4-yl)oxy)acetamido)hexyl)piperazin-1-yl)-2-methoxyphenyl)amino)-5-(trifluoromethyl)pyridin-4-yl)amino)-N-methylbenzamide] | Degradation of FAK protein in H3122 cells (in words) (FAK [2]): pronounced degradation of FAK protein; Degradation of FAK protein (in words) (FAK [1]; PA-TU-8988T cells, 4 hours): rapid and pronounced degradation of FAK protein
10 nM | 100 nM | 85 to 100% | 85 to 100% | CNC(=O)c1ccccc1Nc1cc(Nc2ccc(N3CCN(CCCCCCCCNc4cccc5c4C(=O)N(C4CCC(=O)NC4=O)C5=O)CC3)cc2OC)ncc1C(F)(F)F (stereo not drawn) [Compound 6, 2-((2-((4-(4-(8-((2-(2,6-dioxopiperidin-3-yl)-1,3-dioxoisoindolin-4-yl)amino)octyl)piperazin-1-yl)-2-methoxyphenyl)amino)-5-(trifluoromethyl)pyridin-4-yl)amino)-N-methylbenzamide] | 

More lines, now with the values behind:

Molecule | Concentration at which degradation of FAK protein is evident (FAK [1]; PA-TU-8988T cells, 4 hours) | Concentration of maximal degradation of FAK protein (FAK [1]; PA-TU-8988T cells, 4 hours) | inhibition at 0.01 µM (FAK [1]; [7]) | inhibition at 0.1 µM (FAK [1]; [8]) | also measured
CNC(=O)c1ccccc1Nc1nc(Nc2cc(C)c(C3CCN(CCCCCCNC(=O)COc4cccc5c4C(=O)N(C4CCC(=O)NC4=O)C5=O)CC3)cc2OC(C)C)ncc1C(F)(F)F (stereo not drawn) [Compound 10, 2-((2-((4-(1-(6-(2-((2-(2,6-dioxopiperidin-3-yl)-1,3-dioxoisoindolin-4-yl)oxy)acetamido)hexyl)piperidin-4-yl)-2-isopropoxy-5-methylphenyl)amino)-5-(trifluoromethyl)pyrimidin-4-yl)amino)-N-methylbenzamide] |  |  |  |  | Degradation of FAK protein in H3122 cells (in words) (FAK [2]): pronounced degradation of FAK protein; Degradation of ALK protein in H3122 cells (in words) (ALK [3]): degradation of ALK protein
CS(=O)(=O)c1cccc(CNc2nc(Nc3ccc(C(=O)N4CCN(CCCCCNC(=O)COc5cccc6c5C(=O)N(C5CCC(=O)NC5=O)C6=O)CC4)cc3)ncc2C(F)(F)F)c1 (stereo not drawn) [Compound 8, 2-((2-(2,6-dioxopiperidin-3-yl)-1,3-dioxoisoindolin-4-yl)oxy)-N-(5-(4-(4-((4-((3-(methylsulfonyl)benzyl)amino)-5-(trifluoromethyl)pyrimidin-2-yl)amino)benzoyl)piperazin-1-yl)pentyl)acetamide] |  | 100 nM |  |  | Concentration giving modest degradation of FAK protein (FAK [1]; PA-TU-8988T cells, 4 hours): 10 nM; inhibition at 0.01 µM (FAK [1]; 4 h): 0 to 24%; inhibition at 0.1 µM (FAK [1]; 4 h): 25 to 49%
NS(=O)(=O)OC[C@@H]1C[C@@H](n2ccc3c(N[C@H]4CCc5ccccc54)ncnc32)C[C@@H]1O [MLN4924] |  |  |  |  | Rescue of FAK degradation induced by compound 9 (FAK [4]): rescued the degradation induced by compound 9
CC(C)C[C@H](NC(=O)[C@H](CCc1ccccc1)NC(=O)CN1CCOCC1)C(=O)N[C@@H](Cc1ccccc1)C(=O)N[C@@H](CC(C)C)C(=O)[C@@]1(C)CO1 [carfilzomib] |  |  |  |  | Rescue of FAK degradation induced by compound 9 (FAK [4]): rescued the degradation induced by compound 9
PF-573228 [reference compound] |  |  |  |  | Degradation of FAK protein (in words) (FAK [1]; PA-TU-8988T cells, 4 hours): did not induce degradation of FAK protein
CS(=O)(=O)c1cccc(CNc2nc(Nc3ccc(C(=O)NCCCCCCCCNC(=O)COc4cccc5c4C(=O)N(C4CCC(=O)NC4=O)C5=O)cc3)ncc2C(F)(F)F)c1 (stereo not drawn) [Compound 7, N-(8-(2-((2-(2,6-dioxopiperidin-3-yl)-1,3-dioxoisoindolin-4-yl)oxy)acetamido)octyl)-4-((4-((3-(methylsulfonyl)benzyl)amino)-5-(trifluoromethyl)pyrimidin-2-yl)amino)benzamide] | 10 nM | 100 nM | 25 to 49% | 85 to 100% | 
Nc1cccc2c1CN(C1CCC(=O)NC1=O)C2=O (stereo not drawn) [lenalidomide] |  |  |  |  | Rescue of FAK degradation induced by compound 9 (FAK [4]): rescued the degradation induced by compound 9
CNC(=O)c1ccccc1Nc1cc(Nc2ccc(N3CCOCC3)cc2OC)ncc1C(F)(F)F [VS-4718, reference compound] |  |  |  |  | IC50 (FAK [5]): 0.02 µM; IC50 (ALK [6]): 0.0411 µM; Degradation of FAK protein (in words) (FAK [1]; PA-TU-8988T cells, 4 hours): did not induce degradation of FAK protein
